This is an account of results in US20260027073A1, “USE OF SMALL-MOLECULE COMPOUND HAVING NAPHTHYLAMINE STRUCTURE” (HANGZHOU PHECDAMED CO., LTD., priority 2023, published 2026).

In experiment [1] the test system is LPS-induced acute lung injury mice. The experiment in a line: Survival in LPS-induced acute lung injury. It is filed as in vivo, C57 mice. Conditions: 20 mg/kg intraperitoneal once a day; up to 9 days; FIG. 28. How it is done:
The model was constructed as follows, male mice C57 aged 6-8 weeks and weighing 18-22 g were anesthetized and fixed, and then 20 mg/kg LPS (E.coil) was dissolved in 50 μl of PBS and dripped under direct laryngoscopic vision to form a model group. The experiment was divided into three groups, each having six mice, LPS group (model control group, airway drip of 50 μl LPS), LPS+20 mg/kg group (airway drip of 50 μl LPS, and given 20 mg/kg of TJ01-013 treatment), LPS+Sivelestat group (positive control group, airway drip of 50 μl LPS and given 5 mg/kg of Sivelestat treatment). The mode of administration was intraperitoneal injection, the volume of administration was 5 ml/kg, the frequency of administration was once a day, and the biological deaths and changes in body weights of the mice were observed and recorded every day, and the mice were regarded as physiologically dead if their body weights decreased by 20% or more compared with that before the administration of LPS. Survival curves were plotted based on deaths observed up to 9 days after administration.

A further experiment has as its system MRL/lpr mice. The experiment in a line: Lupus nephritis in MRL/lpr mice. It is filed as in vivo. As for the experimental part: The 10-week-old female MRL/lpr mice were fed in an SPF environment with a light-dark cycle of 12 h and the temperature maintained at 24-26° C. The mice were randomly divided into three groups according to their body weights, namely, the model group (Control, n=8, 0.5% CMC-Na by oral gavage), TJ01-013 10 mg/kg treatment group (10 mg/kg, n=8, 10 mg/kg TJ01-013 by oral gavage), TJ01-013 30 mg/kg treatment group (30 mg/kg, n=8, 30 mg/kg TJ01-013 by oral gavage), the animals were adaptively fed for one week, and were administered every day starting from 11th week, and the animals were monitored for the concentration of randomized urinary proteins and urinary creatinine of the mice in each group every 2 weeks starting from week 11, the mouse urine protein to creatinine concentration ratio (uPCR) was calculated. The animals were administered for a total of 10 weeks, and blood was collected from the orbits at the end of administration and serum was collected. Serum creatinine, urea nitrogen, serum ANA and anti-dsDNA concentrations were detected.
Urine protein and urinary creatinine levels were detected by utilizing Caumas Brilliant Blue staining.
Serum creatinine and urea nitrogen were detected by biochemical analyzer.
Serum ANA and anti-dsDNA levels were detected by ELISA.
Kidney tissue was placed in a homogenizer and minced into pieces thoroughly with clean scissors; 400 μl of lysate was added to the homogenizer, homogenized and then placed on ice, and the grinding was repeated several times on ice until the kidney tissue was ground as thoroughly as possible; after 30 min of lysis, the lysate was transferred to a 1.5 ml centrifuge tube with a pipette, and then centrifuged for 10 min at 12,000 rpm under the condition of 4° C., and the supernatant was taken and stored at −20° C. Inflammatory factors TNFα and IL-6 in kidney tissue proteins were detected using ELISA.

The subject of experiment [2] is DSS-induced enteritis mice. The experiment in a line: DSS-induced inflammatory bowel disease. Format: in vivo, C57BL/6J mice. How it is done: Eight-week-old C57BL/6J male mice were randomly divided into […], of which, G1 blank control group (8 mice), G2 positive control group (intraperitoneal injection of infliximab 10 mg/kg, 8 mice), G3 group (intraperitoneal injection of small-molecule drug TJ01-013, 5 mg/kg, 12 mice), G4 group (intraperitoneal injection of small-molecule drug TJ01-013, 10 mg/kg, 12 mice) and G5 group (intraperitoneal injection of small-molecule drug TJ01-013, 10 mg/kg, 12 mice). The configuration method of intraperitoneal injection drug was 5% DMSO+30% PEG400+65% ddH2O, the small-molecule compound was first dissolved in 5% DMSO, and then 30% PEG400 and 65% H2O were added sequentially, after 2 weeks of acclimatization, 2% DSS solution was given as drinking water for 6 days, and then was replaced with normal drinking water. During the experiment, the mice were injected intraperitoneally with the corresponding concentration of small-molecule compound every day; and the mice were recorded daily for weight change, fecal shape and blood in stool. During the experiment, the fecal shape and blood in stool were scored, and the disease activity index was calculated on day 3th, day 6th, and day 8th.
At the end of the experiment, after the mice were put to death with CO2, all the intestinal segments from the cecum to the anus were cut, photographed and measured for length.
The middle about 1 cm intestinal segment was taken into the embedding box and immersed in 4% paraformaldehyde, fixed and immersed for 72 h to prepare pathological specimens for HE staining, and the histopathological results were scored; tissue embedding, sectioning and HE staining were performed as follows:
The remaining intestinal segments were washed with pre-cooled saline using a 50 mL syringe, and after washing out the remaining liquid in the intestinal lumen, the tissues were cut into pieces with small scissors and mixed evenly, wrapped in tin foil and then rapidly frozen in liquid nitrogen, and all the operations were controlled to be completed within 10 minutes after the death of the mice. The tissues were lysed by Trizol, and RNA was extracted according to the instructions of Trizol; the obtained RNA was subjected to reverse transcription reaction with the Reverse Transcription Kit from ABI company; SYBR Green method was used to detect the inflammatory factors such as Cxcl1, G-CSF, IL6, IL-1β, S100A8, and TNF-α in the reversed transcription products, and the housekeeping gene Actin was used as an internal reference, and calculated and analyzed by 2-ΔΔCt method.

For experiment [3], the system named is rats of adenine induced kidney injury model. The experiment in a line: Adenine-induced kidney injury. Format: in vivo, SD rats. Conditions: 15 mg/kg, 21 days; FIG. 12.
[4] abbreviates: vs model control group, FIG. 23.
Setting [5] is: vs model control group, FIG. 24.

Regarding `O=C(O)C[S+]([O-])c1cc(NS(=O)(=O)c2ccc(Br)cc2)c2ccccc2c1O` (stereo not drawn) [I-1], the survival rate result in experiment [1] was “significantly elevated”. In the experiment on MRL/lpr mice (10 weeks of administration, 10 and 30 mg/kg groups, FIG. 74), the “urine protein to creatinine concentration ratio (uPCR)” value is on record as “significantly lower”. In the experiment on MRL/lpr mice (vs model group, FIG. 75), the serum creatinine level result is given as “significantly decreased” and the “serum urea nitrogen level” value is listed as “significantly decreased”. The “serum ANA level” value in the experiment with MRL/lpr mice (vs model group, FIG. 76) was “significantly decreased”. Moreover, the “serum dsDNA level” value in the experiment with MRL/lpr mice (vs model group, FIG. 77) is on record as “significantly decreased”. Besides, in the experiment on MRL/lpr mice (vs model group, FIG. 78), the “IL-6 level in kidney tissues” value is given as “significantly reduced” and the “TNFα level in kidney tissues” value is given as “significantly reduced”. In addition, the Histopathological scores result in experiment [2] (FIG. 23) is “significantly reduced the pathological changes”. Further, in experiment [2] (intraperitoneal injection during DSS induction, FIG. 20), the “weight loss of the mice” value was “slowing down of the weight loss”. Also, in experiment [2] (intraperitoneal injection during DSS induction, FIG. 21), the disease activity index result is “reduction of the disease activity index”. In addition, the colorectal length entry in experiment [2] (vs model control group, FIG. 22) was “significantly greater”. In experiment [2] (setting [4]), the “colorectal tissue morphology (HE staining)” value is recorded as “more intact” and the “inflammatory infiltration of colorectal tissue” value is recorded as “reduced”. In experiment [2] (setting [5]), the “Cxcl1 expression level in colorectal tissue (q-PCR)” value is “significantly reduced”, the “G-CSF expression level in colorectal tissue (q-PCR)” value is recorded as “significantly reduced”, the “IL6 expression level in colorectal tissue (q-PCR)” value is listed as “significantly reduced” and the “IL-1β expression level in colorectal tissue (q-PCR)” value is “significantly reduced”. In experiment [2] (setting [5]), the “S100A8 expression level in colorectal tissue (q-PCR)” value is reported as “significantly reduced” and the “TNF-α expression level in colorectal tissue (q-PCR)” value is reported as “significantly reduced”. Moreover, the “IL-1β level in kidney tissues” value in experiment [3] was “tendency to be decreased”.
